In series [1] the test system is histamine-induced bronchoconstriction. The conditions noted are these: in words; cited from earlier work.
A short description of series [2]: 30 minute LD50 (acute toxicity without sound). The conditions noted are these: mouse, in vivo, ip. Here is the method: (§1) The interaction of sound with the convulsive threshold of drugs is a known phenomenon which can be used to evaluate such side effects. […] In a procedure for pharmacological evaluation, the lowering of the convulsive threshold, or the lowering of the LD50, by sound can be studied in mice.
(§2) In the test operations, mice are administered a test compound by intraperitoneal injection at various dosages, and the number of mice showing tonic convulsions and the number of fatalities occurring within 30 minutes is recorded.

The test system of series [3] is histamine-induced bronchoconstriction. Description: Bronchodilator activity in the Konzett-Rossler guinea pig preparation (histamine-induced bronchoconstriction). More on the design: key to Histamine Blockade: % blockade = 100 − (post-dose response / mean of 3 prior) × 100. The note with it: for Histamine Blockade: table 7, intravenous, 3 mg/kg except as otherwise indicated, aminophylline 10 mg/kg. It counts as in vivo. Here is the method:
Bronchodilator activity of representative triazolopyridazine compounds of the invention is examined in the Konzett-Rossler quinea pig preparation according to accepted procedures. See Knozett and Rossler; Arch. f. Exp. Path. u. Pharmakol. […] Int. Pharmacodyn. […] In this procedure an anesthetized guinea pig is artificially respired with a fixed volume of air. The volume of air is selected to slightly exceed the capacity of the guinea pig's lungs, and the excess air or "overflow" is measured. Test compounds are evaluated by administering a test compound intravenously 2 minutes prior to administration of an agonist compound (histamine, serotonin or acetylcholine) following 3 previous agonist doses resulting in relatively uniform (±10 percent) bronchoconstriction. […] This is calculated by dividing the "overflow" agonist response measured after administration of the test compound by the average of the 3 preceding agonist responses, multiplying by 100 and subtracting this value from 100 percent.

A short description of series [4]: Audiogenic convulsive side effects (sound challenge: tonic convulsions and fatalities). The note with it: mouse, ip. Here is the method:
as §1, §2
(§3) The sound exposure is carried out by placing the mice in a sound insulated cage with a bell which emits 120 decibels of sound, and activating the bell for two minutes. The number of tonic convulsions and fatalities are then recorded to determine the ED50 and LD50 in the presence of the sound challenge.

Series [5] has as its system mice. The conditions noted are these: laboratory animals; in words; U.S. Pat. No. 4,136,182; cited from earlier work.
Series [6] deals with mice. The note with it: in words, U.S. Pat. No. 4,136,182, cited from earlier work.
Another series concerns histamine aerosol. Put plainly: Histamine aerosol exposure (collapse time). It counts as in vivo, guinea pigs. The conditions noted are these: challenged two hours after intraperitoneal injection, collapse time > mean + two SD of controls; for ED50: Cavia porcellus, ip, 2 h. Here is the method:
In another procedure, test compounds were administered to guinea pigs by intraperitoneal injection and the guinea pigs were challenged two hours later by exposure to a histamine aerosol. Untreated animals collapse when exposed to the histamine aerosol. […] The ED50 's of representative compounds are set out in the following table.

Series [7] deals with mice. Put plainly: in vivo. The note with it: mouse. Here is the method: as §1, §2, §3

Counter-ions that a name gives are not always drawn. Bounds are passed on as bounds.

With `Cc1cc(-c2ccccc2)c2nnc(N3CCOCC3)n2n1` [6-methyl-3-(4-morpholinyl)-8-phenyl-s-triazolo[4,3-b]pyridazine], the effect on bronchoconstriction result in series [1] is “potentiate bronchoconstriction”. In series [2], `c1ccc(-c2nnc3ccc(N4CCOCC4)nn23)cc1` [6-morpholino-3-phenyl-s-triazolo[4,3-b]pyridazine, reference compound] came in with a 50% lethal dose (LD50) at 0.5 h of more than 400 mg/kg. In addition, in series [3], the “Histamine Blockade” value amounted to 22. Moreover, in series [1], the effect on bronchoconstriction entry is “potent bronchodilator”. In series [4] (in vivo), this compound came in with an LD50 of 30 mg/kg and a TD50 of 5 mg/kg. For the same compound, in the series on mice [5], the “LD50 (toxicity)” value is “high LD50 (low toxicity)”. In addition, in the series with mice [6] (laboratory animals), the audiogenic convulsions result was “produce audiogenic convulsions in laboratory animals at relatively low dosages”.

In the case of `Cc1nnc2c3c(c(N4CCCN(C)CC4)nn12)CCCC3` [44 (dihydrochloride)], the ED50 in the series with histamine aerosol came out at 23.8 mg/kg.

As for `Cc1cc2nnc(C)n2nc1N1CCOCC1` [Example 2, 3,7-dimethyl-6-morpholino-s-triazolo[4,3-b]pyridazine], the LD50 at 0.5 h in series [2] came to 228 mg/kg. The “percent blockade of histamine” value in series [3] (3 mg/kg intravenously, 2 minutes prior to histamine) is given as 61%. Also, in series [3], the “Histamine Blockade” value amounted to 61. The “audiogenic convulsive threshold / sound-induced toxicity” value in the series with mice [7] was “much less reduction in convulsive threshold”. The compound further returned an LD50 in series [4] (in vivo) of 148 mg/kg. The TD50 in series [4] amounted to 135 mg/kg. Turning to `c1nnc2c3c(c(N4CCCCCC4)nn12)CCCC3` [Example 29, 6-(hexahydro-1H-azepin-1-yl)-7,8-tetramethylene(1,2,4)triazolo[4,3-b]pyridazine], the ED50 in the series with histamine aerosol was 5 mg/kg.

On to `CC1CCCN1c1nn2cnnc2c2c1CCCC2` (stereo not drawn) [Example 30, 6-(2-methylpyrrolidinyl)-7,8-tetramethylene(1,2,4)triazolo[4,3-b]pyridazine], for which, in the series with histamine aerosol, the ED50 worked out at 1.6 mg/kg. Same read-out and setting: the value for `CNc1nn2cnnc2c2c1CCCC2` [Example 31] was 4 mg/kg. Same read-out and setting: the value for `CN(C)c1nn2cnnc2c2c1CCCC2` [Example 32] was 2.5 mg/kg. Still for that read-out and setting: under `CC1CCCN(c2nn3cnnc3c3c2CCCC3)C1` (stereo not drawn) [Example 33] stands 1.8 mg/kg; under `CC1CCN(c2nn3cnnc3c3c2CCCC3)CC1` [Example 34], 1.3 mg/kg; under `CNc1nn2c(C)nnc2c2c1CCCC2` [Example 38], 2.1 mg/kg. With `Cc1nnc2c3c(c(N(C)C)nn12)CCCC3` [Example 39], in the series with histamine aerosol, the ED50 came to 2.2 mg/kg. Still for that read-out and setting: under `CCc1nnc2c3c(c(N4CCCN(C)CC4)nn12)CCCC3` [Example 45] stands 5 mg/kg. On to `CCc1nnc2c3c(c(N4CCCN(C)CC4)nn12)CCCC3` [Example 46], for which, in the series with histamine aerosol (120 min), the “ED50 (histamine aerosol exposure)” value was less than 5 mg/kg i.p. Turning to `CCc1nnc2c3c(c(N4CCCCCC4)nn12)CCCC3` [Example 47], the ED50 with histamine aerosol was approximately 4.95 mg/kg.

`CCc1nnc2c3c(c(N4CCCC4)nn12)CCCC3` [Example 51]: the ED50 with histamine aerosol is less than 2.5 mg/kg. Take `CCc1nnc2c3c(c(N4CCN(C)CC4)nn12)CCCC3` [Example 53]: the ED50 in the series with histamine aerosol came to 36.4 mg/kg. Still for that read-out and setting: under `CC(C)c1nnc2c3c(c(N4CCCC4C)nn12)CCCC3` (stereo not drawn) [Example 55] stands approximately 7.9 mg/kg; under `CC(C)c1nnc2c3c(c(N4CCCC4)nn12)CCCC3` [Example 56], approximately 5.1 mg/kg. `Cc1c(N2CCOCC2)nn2cnnc2c1C` [R7 Methyl; R3 H; R8 CH3; R6 Morpholino, 6-Morpholino-7,8-dimethyl-s-triazolo[4,3-b]pyridazine]: the LD50 at 0.5 h in series [2] amounted to 272 mg/kg. Moreover, the “Histamine Blockade” value in series [3] stood at 46. Besides, in series [4] (in vivo), the LD50 stood at 272 mg/kg and the TD50 was determined as 272 mg/kg. As to `Cc1c(N2CCCCC2)nn2cnnc2c1C` [R7 Methyl; R3 H; R8 CH3; R6 Piperidino, 6-Piperidino-7,8-dimethyl-s-triazolo[4,3-b]pyridazine], in series [2], the LD50 at 0.5 h turned out to be 404 mg/kg. The “Histamine Blockade” value in series [3] is listed as 45. For the same compound, in series [4] (in vivo), the LD50 turned out to be 404 mg/kg and the TD50 is 404 mg/kg.

As to `O=C1C[C@@H]2OCC=C3CN4CC[C@]56c7ccccc7N1[C@H]5[C@H]2[C@H]3C[C@H]46` [strychnine], in the series with mice [6], the “change in toxicity with sound” value is reported as “no significant change in toxicity with sound”.

The values above are taken from patent US4526890A, “3,6,7,8-Substituted-s-triazolo[4,3-b]pyridazines as bronchodilators” (The Dow Chemical Company, priority 1981, dated 1985).
